Test results from patent US10450260B2, “NO- and H2S-releasing compounds” (RESEARCH FOUNDATION OF THE CITY UNIVERSITY OF NEW YORK, priority 2011, dated 2019).
Read-outs that look alike come from different tables or passages of the source.

How the values were obtained:
Format in all cases: cell-based
[1] = tested on: HCT-15 human colon adenocarcinoma; test: MTT cell growth inhibition, HCT15; conditions: for IC50: Homo sapiens, HCT-15; for Ratio NSAID/NOSH-NSAID, HCT15: fold-enhancement in potency over the parent compound
Protocol: (§1) All cells lines were grown as monolayers except for the Jurkats which were grown in suspension. […] All media were supplemented with 10% fetal calf serum (Invitrogen, Carlsbad, Calif.) penicillin (50 U/ml), and streptomycin (50 μg/ml) (Invitrogen, Carlsbad, Calif.). Cells were seeded on culture dishes at a density of 25×10^3 cells/cm^2 and incubated at 37° C. in 5% CO2 and 90% relative humidity. Single cell suspensions were obtained by trypsinization (0.05% trypsin/EDTA), and cells were counted using a hemocytometer. Viability was determined by the trypan blue dye exclusion method.
(§2) Cell growth inhibitory effect of NOSH compounds were measured using a colorimetric MTT assay kit (Roche, Indianapolis, Ind.). Cancer cells were plated in 96-well plates at a density of 50,000 cells/well. The cells were incubated for 24 h with different concentrations of NOSH compounds. After the indicated time, 10 μl of MTT dye (3-[4,5-dimethylthiazol-2-yl]-2,5-diphenyl tetrazolium bromide, 5 mg/ml in phosphate buffered saline), was added to each well, and the plates were incubated for 2 hours at 37° C. Then, the media was aspirated, and add 100 μl of the solubilization solution (10% SDS in 0.01 M HCl) was added to each well to solubilize the formant crystals. The absorbance of the plates was measured on an ELISA reader at a wavelength of 570 nm. Each sample was performed in triplicate, and the entire experiment was repeated three times.
(§3) All media were supplemented with 10% fetal calf serum (Invitrogen, Carlsbad, Calif.) penicillin (50 U/ml), and streptomycin (50 μg/ml) (Invitrogen, Carlsbad, Calif.). Cells were seeded on culture dishes at a density of 25×10^3 cells/cm^2 and incubated at 37° C. in 5% CO2 and 90% relative humidity. Single cell suspensions were obtained by trypsinization (0.05% trypsin/EDTA), and cells were counted using a hemacytometer. The final DMSO concentration was adjusted in all media to 1%. Viability was determined by the trypan blue dye exclusion method.
(§4) Cell growth inhibitory effect of all NOSH-NSAIDs was measured using a colorimetric MTT assay kit (Roche, Indianapolis, Ind.). Cancer cells were plated in 96-well plates at a density of 30,000-50,000 cells/well depending on cell type. The cells were incubated for 24 hours with different concentrations of NOSH-NSAIDs. After the indicated time, 10 μL of MTT dye (3-[4,5-dimethylthiazol-2-yl]-2,5-diphenyl tetrazolium bromide, 5 mg/mL in phosphate buffered saline), was added to each well, and the plates were incubated for 2 hours at 37° C. Then, the media was aspirated, and 100 μL of the solubilization solution (10% SDS in 0.01 M HCl) was added to each well to solubilize the formant crystals. The absorbance of the plates was measured on a spectrophotometric plate reader at a wavelength of 570 nm. Each experiment was performed in triplicate, and the entire experiment was repeated three times.

[2] = tested on: SK-BR-3 human breast cancer; test: MTT cell growth inhibition, SKBR3; conditions: for IC50: Homo sapiens, SK-BR-3; for Ratio NSAID/NOSH-NSAID, SKBR3: fold-enhancement in potency over the parent compound
Protocol: as §1, §2, §3, §4

[3] = tested on: MDA-MB 231 human breast cancer; test: MTT cell growth inhibition, MDA MB231; conditions: for IC50: Homo sapiens, MDA-MB-231; for Ratio NSAID/NOSH-NSAID, MDA MB231: fold-enhancement in potency over the parent compound
Protocol: (§5) HT-29, SW-480 and HCT-15 human colon adenocarcinoma, MIA PaCa-2 and BxPC-3 human pancreatic cancer, LNCAP human prostate cancer, A549 human lung cancer, MCF-7 (estrogen receptor positive), MDA-MB 231 and SK-BR-3 (estrogen receptor negative) human breast cancer, and Jurkats human leukemia cell lines were obtained from American Type Tissue Collection (Manassas, Va.). All cells lines were grown as monolayers except for the Jurkats which were grown in suspension. The pancreatic and breast cancer cells were grown in Dulbecco's modified Eagle's medium, the prostate, Jurkat, SW-480 and HCT-15 colon cells were grown in RPMI 1640 medium, the lung cells were grown in F-12 and the colon HT-29 cells were grown in McCoy 5A. All media were supplemented with 10% fetal calf serum (Invitrogen, Carlsbad, Calif.) penicillin (50 U/ml), and streptomycin (50 μg/ml) (Invitrogen, Carlsbad, Calif.). Cells were seeded on culture dishes at a density of 25×10^3 cells/cm^2 and incubated at 37° C. in 5% CO2 and 90% relative humidity. Single cell suspensions were obtained by trypsinization (0.05% trypsin/EDTA), and cells were counted using a hemocytometer. Viability was determined by the trypan blue dye exclusion method.
as §2
(§6) HT-29, SW-480 and HCT-15 human colon adenocarcinoma, MIA PaCa-2 and BxPC-3 human pancreatic cancer, LNCAP human prostate cancer, A549 and H383 human lung cancer, MCF-7, MDA-MB 231 and SK-BR-3 human breast cancer and Jurkat T cell human leukemia cell lines were obtained from American Type Tissue Collection (Manassas, Va.) All cells lines were grown as monolayers except for the Jurkat T cells which were grown as suspension culture. The pancreatic and breast cancer cells were grown in Dulbecco's modified Eagle's medium, the prostate, Jurkat, SW-480 and HCT-15 colon cells were grown in RPMI 1640 medium, the lung cells were grown in F-12 and the colon HT-29 cells were grown in McCoy 5A. All media were supplemented with 10% fetal calf serum (Invitrogen, Carlsbad, Calif.) penicillin (50 U/ml), and streptomycin (50 μg/ml) (Invitrogen, Carlsbad, Calif.). Cells were seeded on culture dishes at a density of 25×10^3 cells/cm^2 and incubated at 37° C. in 5% CO2 and 90% relative humidity. Single cell suspensions were obtained by trypsinization (0.05% trypsin/EDTA), and cells were counted using a hemacytometer. The final DMSO concentration was adjusted in all media to 1%. Viability was determined by the trypan blue dye exclusion method.
as §4, with “The absorbance of the plates was measured on a spectrophotometric plate reader at a wavelength of 570 nm. Each experiment was performed in triplicate, and the entire experiment was repeated three times.” left out

[4] = tested on: MCF-7 human breast cancer; test: MTT cell growth inhibition, MCF7; conditions: for IC50: Homo sapiens, MCF7; for Ratio NSAID/NOSH-NSAID, MCF7: fold-enhancement in potency over the parent compound
Protocol: as §5, §2, §6
as §4, with “The absorbance of the plates was measured on a spectrophotometric plate reader at a wavelength of 570 nm. Each experiment was performed in triplicate, and the entire experiment was repeated three times.” left out

[5] = tested on: SW-480 human colon adenocarcinoma; test: MTT cell growth inhibition, SW480; conditions: for IC50: Homo sapiens, SW480; for Ratio NSAID/NOSH-NSAID, SW480: fold-enhancement in potency over the parent compound
Protocol: as §1, §2, §3, §4

[6] = tested on: LNCAP human prostate cancer; test: MTT cell growth inhibition, LNCAP; conditions: for IC50: Homo sapiens, LNCaP; for Ratio NSAID/NOSH-NSAID, LNCAP: fold-enhancement in potency over the parent compound
Protocol: as §5, §2, §6
as §4, with “The absorbance of the plates was measured on a spectrophotometric plate reader at a wavelength of 570 nm. Each experiment was performed in triplicate, and the entire experiment was repeated three times.” left out

A549 human lung cancer = test: MTT cell growth inhibition, A549; conditions: for IC50: Homo sapiens, A549; for Ratio NSAID/NOSH-NSAID, A549: fold-enhancement in potency over the parent compound
Protocol: as §5, §2, §6
as §4, with “The absorbance of the plates was measured on a spectrophotometric plate reader at a wavelength of 570 nm. Each experiment was performed in triplicate, and the entire experiment was repeated three times.” left out

[7] = 24 hours (Table 7), read-out: IC50 for cell growth inhibition, Lung A549
[8] = 24 hours, read-out: IC50 for cell growth inhibition, Lung A540

Row | SMILES | IC50 ([1]; 24 hours) | IC50 ([2]; 24 hours) | IC50 ([3]; 24 hours) | IC50 ([4]; 24 hours) | IC50 ([5]; 24 hours) | IC50 ([6]; 24 hours) | IC50 (A549 human lung cancer; [8]) | IC50 ([1]; 24 hours (Table 7)) | IC50 ([2]; 24 hours (Table 7)) | IC50 ([3]; 24 hours (Table 7)) | IC50 ([4]; 24 hours (Table 7)) | IC50 ([5]; 24 hours (Table 7)) | IC50 ([6]; 24 hours (Table 7)) | IC50 (A549 human lung cancer; [7]) | other results
1 | CC1=C(CC(=O)O)c2cc(F)ccc2/C1=C\c1ccc([S+](C)[O-])cc1 (centres unmarked) [sulindac, reference compound] |  |  |  |  |  |  |  | 850000 nM | 845000 nM | 935 µM | 965 µM | 710000 nM | 810000 nM | 212000 nM | 
2 | O=C(CCCO[N+](=O)[O-])Oc1ccccc1C(=O)Oc1ccc(-c2cc(=S)ss2)cc1 [NOSH-1, 4-(3-thioxo-3H-1,2-dithiol-5-yl)phenyl 2-((4-(nitrooxy)butanoyl)oxy)benzoate] | 50 ± 5 nM | 75 ± 5 nM | 0.1 ± 0.011 µM | 0.28 ± 0.016 µM | 60 ± 4 nM | 88 ± 8 nM | 50 ± 7 nM |  |  |  |  |  |  |  | 
3 | CC1=C(CC(=O)Oc2ccc(OC(=O)CCCO[N+](=O)[O-])c(C(=O)Oc3ccc(-c4cc(=S)ss4)cc3)c2)c2cc(F)ccc2/C1=C/c1ccc([S+](C)[O-])cc1 (centres unmarked) [NOSH-8, (E)-4-(3-thioxo-3H-1,2-dithiol-5-yl)phenyl 5-(2-(5-fluoro-2-methyl-1-(4-(methylsulfinyl)benzylidene)-1H-inden-3-yl)acetoxy)-2-((4-(nitrooxy)butanoyl)oxy)benzoate] |  |  |  |  |  |  |  | 110 nM | 120 nM | 0.098 µM | 0.11 µM | 110 nM | 90 nM | 180 nM | Ratio NSAID/NOSH-NSAID, HCT15 [1]: 7,727; Ratio NSAID/NOSH-NSAID, SKBR3 [2]: 7,041; Ratio NSAID/NOSH-NSAID, MDA MB231 [3]: 9,540; Ratio NSAID/NOSH-NSAID, MCF7 [4]: 8,772; Ratio NSAID/NOSH-NSAID, SW480 [5]: 6,454; Ratio NSAID/NOSH-NSAID, LNCAP [6]: 9,000; Ratio NSAID/NOSH-NSAID, A549 (A549 human lung cancer): 1,177
4 | O=C(CCC(=O)Oc1ccccc1C(=O)Oc1ccc(-c2cc(=S)ss2)cc1)OCCCCO[N+](=O)[O-] [NOSH-2, 4-(nitrooxy)butyl (2-((4-(3-thioxo-3H-1,2-dithiol-5-yl)phenoxy)carbonyl)phenyl) succinate] | 90 ± 6 nM | 88 ± 7 nM | 0.085 ± 0.008 µM | 0.07 ± 0.005 µM | 97 ± 7 nM | 100 ± 12 nM | 120 ± 14 nM |  |  |  |  |  |  |  | 
5 | COc1ccc2cc([C@H](C)C(=O)O)ccc2c1 [naproxen, reference compound] |  |  |  |  |  |  |  |  |  | 2900 µM | 2350 µM |  |  |  | 
6 | CC(C(=O)Oc1ccc(-c2cc(=S)ss2)cc1)c1ccc2cc(OC(=O)CCCO[N+](=O)[O-])ccc2c1 (centres unmarked) [NOSH-7, 6-(1-oxo-1-(4-(3-thioxo-3H-1,2-dithiol-5-yl)phenoxy)propan-2-yl)naphthalen-2-yl 4-(nitrooxy)butanoate] |  |  |  |  |  |  |  | 100 nM | 100 nM | 0.11 µM | 0.11 µM | 98 nM | 130 nM | 100 nM | Ratio NSAID/NOSH-NSAID, HCT15 [1]: 28,500; Ratio NSAID/NOSH-NSAID, SKBR3 [2]: 28,900; Ratio NSAID/NOSH-NSAID, MDA MB231 [3]: 26,363; Ratio NSAID/NOSH-NSAID, MCF7 [4]: 21,363; Ratio NSAID/NOSH-NSAID, SW480 [5]: 31,734; Ratio NSAID/NOSH-NSAID, LNCAP [6]: 23,000; Ratio NSAID/NOSH-NSAID, A549 (A549 human lung cancer): 26,500

The next lines start with results.

Row | IC50 ([1]; 24 hours) | IC50 ([2]; 24 hours) | IC50 ([3]; 24 hours) | IC50 ([4]; 24 hours) | IC50 ([5]; 24 hours) | IC50 ([6]; 24 hours) | IC50 (A549 human lung cancer; [8]) | SMILES | IC50 ([1]; 24 hours (Table 7)) | IC50 ([2]; 24 hours (Table 7)) | IC50 ([3]; 24 hours (Table 7)) | IC50 ([4]; 24 hours (Table 7)) | IC50 ([5]; 24 hours (Table 7)) | IC50 ([6]; 24 hours (Table 7)) | IC50 (A549 human lung cancer; [7]) | other results
7 | 5900 ± 305 nM | 6500 ± 268 nM | 6 ± 0.22 µM | 5.7 ± 0.323 µM | 5300 ± 240 nM | 4300 ± 212 nM | 6500 ± 224 nM | NC(=S)c1ccc(OC(=O)c2ccccc2OC(=O)CCCO[N+](=O)[O-])cc1 [NOSH-3, 4-carbamothioylphenyl 2-((4-(nitrooxy)butanoyl)-oxy)benzoate] |  |  |  |  |  |  |  | 
8 | 520 ± 21 nM | 550 ± 28 nM | 0.8 ± 0.022 µM | 0.28 ± 0.015 µM | 600 ± 25 nM | 500 ± 18 nM | 300 ± 12 nM | O=C(CCCC[C@@H]1CCSS1)Oc1ccccc1C(=O)OCCCCO[N+](=O)[O-] [NOSH-4, (R)-4-(nitrooxy)butyl 2-((5-(1,2-dithiolan-3-yl)pentanoyl)oxy)benzoate] |  |  |  |  |  |  |  | 
